Test results taken from US8110682B2, “Preparation and use of compounds as aspartyl protease inhibitors” (Schering Corporation, priority 2005, dated 2012).

Target: T1, sproBACE1 (soluble human BACE1) (Homo sapiens, UniProt P56817)
T1 construct: sBACE1, corresponding to amino acids 1-454; myc (C); His (C); made in house; host or cells: Sf9 insect cells (baculovirus), secreted into medium
Assay: BACE-1 peptide hydrolysis assay (HTRF, APPsw substrate)
Type: biochemical
Conditions: 7 nM sproBACE1, pH 5.0, 30° C.
From the text: A predicted soluble form of human BACE1 (sBACE1, corresponding to amino acids 1-454) is generated from the full length BACE1 cDNA (full length human BACE1 cDNA in pcDNA4/mycHisA construct; University of Toronto) by PCR using the advantage-GC cDNA PCR kit (Clontech, Palo Alto, Calif.). A HindIII/Pmel fragment from pcDNA4-sBACE1 myc/His is blunt ended using Klenow and subcloned into the Stu I site of pFASTBACI(A) (Invitrogen). A sBACE1mycHis recombinant bacmid is generated by transposition in DH10Bac cells(GIBCO/BRL). Subsequently, the sBACE1 mycHis bacmid construct is transfected into sf9 cells using CellFectin (Invitrogen, San Diego, Calif.) in order to generate recombinant baculovirus. […]
Proteins, are eluted from the Q-sepharose column with Buffer B (20 mM HEPES, pH 8.0, 500 mM NaCl). […] Peak protein fractions as determined by the Bradford Assay (Biorad, Calif.) are concentrated using a Centricon 30 concentrator (Millipore). sBACE1 purity is estimated to be ˜90% as assessed by SDS-PAGE and Commassie Blue staining. […]
IC50 determinations for inhibitors, (I), are determined by measuring the percent change of the relative fluorescence at 665 nm divided by the relative fluorescence at 620 nm, (665/620 ratio), in the presence of varying concentrations of I and a fixed concentration of enzyme and substrate.

T1 sequence (P56817 22-454): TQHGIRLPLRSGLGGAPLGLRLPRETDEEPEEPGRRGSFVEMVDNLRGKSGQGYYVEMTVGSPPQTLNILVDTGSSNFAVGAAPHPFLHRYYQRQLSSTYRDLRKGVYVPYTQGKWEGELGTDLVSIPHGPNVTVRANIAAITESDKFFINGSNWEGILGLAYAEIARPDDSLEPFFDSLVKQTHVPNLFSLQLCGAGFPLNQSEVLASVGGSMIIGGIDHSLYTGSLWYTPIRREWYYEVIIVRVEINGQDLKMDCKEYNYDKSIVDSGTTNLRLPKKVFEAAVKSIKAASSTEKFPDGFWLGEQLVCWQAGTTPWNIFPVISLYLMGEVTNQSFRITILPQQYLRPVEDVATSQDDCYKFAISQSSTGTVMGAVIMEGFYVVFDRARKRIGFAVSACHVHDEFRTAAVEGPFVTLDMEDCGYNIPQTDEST

Ki: 1360 nM
SMILES: CN1C(=N)NC(C)(c2cccc(-c3cc(Cl)cc(Cl)c3)c2)N(C)C1=O (stereo not shown) [Example 7]
